{"source": "ChEMBL document CHEMBL1144872", "about": "“A quantitative structure-activity relationship and pharmacophore modeling investigation of aryl-X and heterocyclic bisphosphonates as bone resorption agents” (J Med Chem, 2003)", "data": [{"biological_target": "bone resorption (Rattus norvegicus)", "units": {"IC50": "nM"}, "values": [{"smiles": "O=P(O)(O)C(Nc1nccs1)P(=O)(O)O", "IC50": 18.2}, {"smiles": "CC(C)c1cnc(NC(P(=O)(O)O)P(=O)(O)O)s1", "IC50": 632}, {"smiles": "CN(CCCOc1ccc(F)cc1)CCC(O)(P(=O)(O)O)P(=O)(O)O", "IC50": 1.45}, {"smiles": "CN(CCCCCCOc1ccccc1)CCC(O)(P(=O)(O)O)P(=O)(O)O", "IC50": 17600}, {"smiles": "CCc1cnc(NC(P(=O)(O)O)P(=O)(O)O)s1", "IC50": 4.82}, {"smiles": "O=P(O)(O)C(O)(CCc1cnc[nH]1)P(=O)(O)O", "IC50": 66.7}, {"smiles": "Cc1cnc(NC(P(=O)(O)O)P(=O)(O)O)s1", "IC50": 5.13}, {"smiles": "Cc1csc(NC(P(=O)(O)O)P(=O)(O)O)n1", "IC50": 347}, {"smiles": "CN(CCCOc1ccccc1)CCCC(O)(P(=O)(O)O)P(=O)(O)O", "IC50": 246}, {"smiles": "CN(CCCSc1ccccc1)CCC(O)(P(=O)(O)O)P(=O)(O)O", "IC50": 0.618}, {"smiles": "CCCc1cnc(NC(P(=O)(O)O)P(=O)(O)O)s1", "IC50": 6.15}, {"smiles": "CN(CCCc1ccc(Cl)cc1)CCC(O)(P(=O)(O)O)P(=O)(O)O", "IC50": 1.66}, {"smiles": "CCN(CCCOc1ccccc1)CCC(O)(P(=O)(O)O)P(=O)(O)O", "IC50": 72.1}, {"smiles": "O=P(O)(O)C(O)(Cn1cncn1)P(=O)(O)O", "IC50": 2200}, {"smiles": "O=P(O)(O)C(Nc1ncc[nH]1)P(=O)(O)O", "IC50": 1950}, {"smiles": "O=P(O)(O)C(Nc1nccn1Cc1ccccc1)P(=O)(O)O", "IC50": 185}, {"smiles": "COc1ccc(OCCCN(C)CCC(O)(P(=O)(O)O)P(=O)(O)O)cc1", "IC50": 2.82}, {"smiles": "CN(CCCSc1ccc(Cl)cc1)CCC(O)(P(=O)(O)O)P(=O)(O)O", "IC50": 18}, {"smiles": "O=P(O)(O)C(Cc1nccs1)P(=O)(O)O", "IC50": 733}, {"smiles": "O=P(O)(O)C(O)(CCNCCCCc1ccccc1)P(=O)(O)O", "IC50": 2.69}, {"smiles": "Cc1nc[nH]c1CC(O)(P(=O)(O)O)P(=O)(O)O", "IC50": 5.13}, {"smiles": "Cc1ncn(CC(O)(P(=O)(O)O)P(=O)(O)O)c1C", "IC50": 5}, {"smiles": "CN(CCCCOc1ccccc1)CCC(O)(P(=O)(O)O)P(=O)(O)O", "IC50": 10.1}, {"smiles": "CN(CCCOc1ccccc1)CCC(O)(P(=O)(O)O)P(=O)(O)O", "IC50": 1.29}, {"smiles": "O=P(O)(O)C(O)(CCNCCCSc1ccccc1)P(=O)(O)O", "IC50": 18.2}, {"smiles": "CN(CCOc1ccc(Cl)cc1)CCC(O)(P(=O)(O)O)P(=O)(O)O", "IC50": 4.07}, {"smiles": "O=P(O)(O)C(Nc1ncc(CCc2ccccc2)s1)P(=O)(O)O", "IC50": 7.08}, {"smiles": "Cc1cccc(OCCCN(C)CCC(O)(P(=O)(O)O)P(=O)(O)O)c1", "IC50": 4.27}, {"smiles": "Cn1ccnc1NC(P(=O)(O)O)P(=O)(O)O", "IC50": 18.5}, {"smiles": "CCCCN(CCCOc1ccccc1)CCC(O)(P(=O)(O)O)P(=O)(O)O", "IC50": 1170}, {"smiles": "Cn1ccnc1CC(O)(P(=O)(O)O)P(=O)(O)O", "IC50": 1.97}, {"smiles": "CCCCc1cnc(NC(P(=O)(O)O)P(=O)(O)O)s1", "IC50": 2.69}, {"smiles": "CN(CCc1ccccc1)CCC(O)(P(=O)(O)O)P(=O)(O)O", "IC50": 3.92}, {"smiles": "CN(CCCc1ccccc1)CCC(O)(P(=O)(O)O)P(=O)(O)O", "IC50": 2.59}, {"smiles": "O=P(O)(O)C(O)(CCn1ccnc1)P(=O)(O)O", "IC50": 157}, {"smiles": "O=P(O)(O)C(O)(CCNCCc1ccccc1)P(=O)(O)O", "IC50": 885}, {"smiles": "O=P(O)(O)C(O)(CCNCCCOc1ccccc1)P(=O)(O)O", "IC50": 3.25}, {"smiles": "O=P(O)(O)C(O)(CCNCCCc1ccccc1)P(=O)(O)O", "IC50": 55.8}, {"smiles": "O=C(c1ccccc1)n1ccnc1CC(O)(P(=O)(O)O)P(=O)(O)O", "IC50": 64.6}, {"smiles": "CN(CCCCCCc1ccccc1)CCC(O)(P(=O)(O)O)P(=O)(O)O", "IC50": 3630}, {"smiles": "CN(CCCOc1ccc(Cl)cc1)CCC(O)(P(=O)(O)O)P(=O)(O)O", "IC50": 3.12}, {"smiles": "O=P(O)(O)C(O)(Cc1ncc[nH]1)P(=O)(O)O", "IC50": 17.8}, {"smiles": "CCCN(CCCOc1ccccc1)CCC(O)(P(=O)(O)O)P(=O)(O)O", "IC50": 24}]}]}
